Results taken from PubChem BioAssay (NCI).
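Method: 48-hour compound exposure of cells in 96-well plates, five concentrations, linear interpolation of endpoints. TGI marks complete inhibition of growth.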

Experiments:
Experiment in all cases: growth of human tumour cells (NCI), 48 h
786-0 renal = tested on: 786-0 renal
A498 renal = tested on: A498 renal
A549 NSCLC = tested on: A549 NSCLC
ACHN renal = tested on: ACHN renal
CAKI-1 renal = tested on: CAKI-1 renal
CCRF-CEM leukemia = tested on: CCRF-CEM leukemia
COLO 205 colon = tested on: COLO 205 colon
DU-145 prostate = tested on: DU-145 prostate
EKVX NSCLC = tested on: EKVX NSCLC
HCC-2998 colon = tested on: HCC-2998 colon
HCT-116 colon = tested on: HCT-116 colon
HCT-15 colon = tested on: HCT-15 colon
HL-60(TB) leukemia = tested on: HL-60(TB) leukemia
HOP-62 NSCLC = tested on: HOP-62 NSCLC
HOP-92 NSCLC = tested on: HOP-92 NSCLC
HS 578T breast = tested on: HS 578T breast
HT29 colon = tested on: HT29 colon
IGROV1 ovarian = tested on: IGROV1 ovarian
K-562 leukemia = tested on: K-562 leukemia
KM12 colon = tested on: KM12 colon
LOX IMVI melanoma = tested on: LOX IMVI melanoma
M14 melanoma = tested on: M14 melanoma
MALME-3M melanoma = tested on: MALME-3M melanoma
MDA-MB-231 breast = tested on: MDA-MB-231 breast
MDA-MB-435 = tested on: MDA-MB-435
MDA-N = tested on: MDA-N
MOLT-4 leukemia = tested on: MOLT-4 leukemia
NCI-H226 lung = tested on: NCI-H226 lung
NCI-H23 lung = tested on: NCI-H23 lung
NCI-H460 lung = tested on: NCI-H460 lung
NCI-H522 lung = tested on: NCI-H522 lung
NCI/ADR-RES ovarian = tested on: NCI/ADR-RES ovarian
OVCAR-3 ovarian = tested on: OVCAR-3 ovarian
OVCAR-4 ovarian = tested on: OVCAR-4 ovarian
OVCAR-5 ovarian = tested on: OVCAR-5 ovarian
OVCAR-8 ovarian = tested on: OVCAR-8 ovarian
PC-3 prostate = tested on: PC-3 prostate
RPMI-8226 leukemia = tested on: RPMI-8226 leukemia
RXF 393 renal = tested on: RXF 393 renal
SF-268 CNS = tested on: SF-268 CNS
SF-295 CNS = tested on: SF-295 CNS
SF-539 CNS = tested on: SF-539 CNS
SK-MEL-28 melanoma = tested on: SK-MEL-28 melanoma
SK-MEL-5 melanoma = tested on: SK-MEL-5 melanoma
SK-OV-3 ovarian = tested on: SK-OV-3 ovarian
SN12C renal = tested on: SN12C renal
SNB-19 CNS = tested on: SNB-19 CNS
SR leukemia = tested on: SR leukemia
SW-620 colon = tested on: SW-620 colon
T-47D breast = tested on: T-47D breast
TK-10 renal = tested on: TK-10 renal
UACC-62 melanoma = tested on: UACC-62 melanoma
UO-31 renal = tested on: UO-31 renal
BT-549 breast = tested on: BT-549 breast
MCF7 breast = tested on: MCF7 breast
SK-MEL-2 melanoma = tested on: SK-MEL-2 melanoma
SNB-75 CNS = tested on: SNB-75 CNS
U251 CNS = tested on: U251 CNS
UACC-257 melanoma = tested on: UACC-257 melanoma

With `CCCCOC(=O)NC(Nc1ccc(S(=O)(=O)Nc2ncccn2)cc1)(C(F)(F)F)C(F)(F)F` the TGI (786-0 renal) was greater than 100 µM, the TGI (A498 renal) was greater than 100 µM and the TGI (A549 NSCLC) was greater than 100 µM. It also gave a TGI (ACHN renal) greater than 100 µM, a TGI (CAKI-1 renal) greater than 100 µM and a TGI (CCRF-CEM leukemia) greater than 100 µM. It also gave a TGI (COLO 205 colon) greater than 100 µM, a TGI (DU-145 prostate) greater than 100 µM and a TGI (EKVX NSCLC) greater than 100 µM. For the same molecule, the TGI (HCC-2998 colon) was 65.9 µM, the TGI (HCT-116 colon) was greater than 100 µM and the TGI (HCT-15 colon) was greater than 100 µM. For the same molecule, the TGI (HL-60(TB) leukemia) was greater than 100 µM, the TGI (HOP-62 NSCLC) was greater than 100 µM and the TGI (HOP-92 NSCLC) was greater than 100 µM. It also gave a TGI (HS 578T breast) greater than 100 µM, a TGI (HT29 colon) greater than 100 µM and a TGI (IGROV1 ovarian) greater than 100 µM. It also gave a TGI (K-562 leukemia) greater than 100 µM, a TGI (KM12 colon) greater than 100 µM and a TGI (LOX IMVI melanoma) greater than 100 µM. It also gave a TGI (M14 melanoma) greater than 100 µM, a TGI (MALME-3M melanoma) greater than 100 µM and a TGI (MDA-MB-231 breast) greater than 100 µM. The TGI (MDA-MB-435) was greater than 100 µM, the TGI (MDA-N) was greater than 100 µM and the TGI (MOLT-4 leukemia) was greater than 100 µM. The TGI (NCI-H226 lung) was greater than 100 µM, the TGI (NCI-H23 lung) was greater than 100 µM and the TGI (NCI-H460 lung) was greater than 100 µM. The TGI (NCI-H522 lung) was greater than 100 µM, the TGI (NCI/ADR-RES ovarian) was greater than 100 µM and the TGI (OVCAR-3 ovarian) was greater than 100 µM. For the same molecule, the TGI (OVCAR-4 ovarian) was greater than 100 µM, the TGI (OVCAR-5 ovarian) was greater than 100 µM and the TGI (OVCAR-8 ovarian) was greater than 100 µM. The TGI (PC-3 prostate) was greater than 100 µM, the TGI (RPMI-8226 leukemia) was greater than 100 µM and the TGI (RXF 393 renal) was greater than 100 µM. It also gave a TGI (SF-268 CNS) greater than 100 µM, a TGI (SF-295 CNS) greater than 100 µM and a TGI (SF-539 CNS) greater than 100 µM. For the same molecule, the TGI (SK-MEL-28 melanoma) was greater than 100 µM, the TGI (SK-MEL-5 melanoma) was greater than 100 µM and the TGI (SK-OV-3 ovarian) was greater than 100 µM. For the same molecule, the TGI (SN12C renal) was greater than 100 µM, the TGI (SNB-19 CNS) was greater than 100 µM and the TGI (SR leukemia) was greater than 100 µM. The TGI (SW-620 colon) was greater than 100 µM, the TGI (T-47D breast) was greater than 100 µM and the TGI (TK-10 renal) was greater than 100 µM. For the same molecule, the TGI (UACC-62 melanoma) was greater than 100 µM and the TGI (UO-31 renal) was 43.6 µM.

`Fc1cccc(C2SCc3nc4cc5ccccc5cc4n32)c1` (configuration not stated) showed a TGI (786-0 renal) greater than 100 µM, a TGI (A549 NSCLC) greater than 100 µM and a TGI (ACHN renal) greater than 100 µM. It also gave a TGI (BT-549 breast) greater than 100 µM, a TGI (CAKI-1 renal) greater than 100 µM and a TGI (CCRF-CEM leukemia) greater than 100 µM. For the same molecule, the TGI (COLO 205 colon) was greater than 100 µM, the TGI (DU-145 prostate) was greater than 100 µM and the TGI (EKVX NSCLC) was greater than 100 µM. For the same molecule, the TGI (HCC-2998 colon) was greater than 100 µM, the TGI (HCT-116 colon) was greater than 100 µM and the TGI (HCT-15 colon) was greater than 100 µM. It also gave a TGI (HOP-62 NSCLC) greater than 100 µM, a TGI (HOP-92 NSCLC) greater than 100 µM and a TGI (HS 578T breast) greater than 100 µM. It also gave a TGI (HT29 colon) greater than 100 µM, a TGI (IGROV1 ovarian) greater than 100 µM and a TGI (K-562 leukemia) greater than 100 µM. The TGI (KM12 colon) was greater than 100 µM, the TGI (LOX IMVI melanoma) was greater than 100 µM and the TGI (M14 melanoma) was greater than 100 µM. For the same molecule, the TGI (MALME-3M melanoma) was greater than 100 µM, the TGI (MCF7 breast) was greater than 100 µM and the TGI (MDA-MB-231 breast) was greater than 100 µM. It also gave a TGI (MDA-MB-435) greater than 100 µM, a TGI (MDA-N) greater than 100 µM and a TGI (MOLT-4 leukemia) greater than 100 µM. For the same molecule, the TGI (NCI-H226 lung) was greater than 100 µM, the TGI (NCI-H23 lung) was greater than 100 µM and the TGI (NCI/ADR-RES ovarian) was greater than 100 µM. For the same molecule, the TGI (OVCAR-3 ovarian) was greater than 100 µM, the TGI (OVCAR-4 ovarian) was greater than 100 µM and the TGI (OVCAR-5 ovarian) was greater than 100 µM. For the same molecule, the TGI (OVCAR-8 ovarian) was greater than 100 µM, the TGI (PC-3 prostate) was greater than 100 µM and the TGI (RPMI-8226 leukemia) was greater than 100 µM. The TGI (RXF 393 renal) was greater than 100 µM, the TGI (SF-268 CNS) was greater than 100 µM and the TGI (SF-295 CNS) was greater than 100 µM. It also gave a TGI (SF-539 CNS) greater than 100 µM, a TGI (SK-MEL-2 melanoma) greater than 100 µM and a TGI (SK-MEL-28 melanoma) greater than 100 µM. For the same molecule, the TGI (SK-OV-3 ovarian) was greater than 100 µM, the TGI (SN12C renal) was greater than 100 µM and the TGI (SNB-19 CNS) was greater than 100 µM. It also gave a TGI (SNB-75 CNS) greater than 100 µM, a TGI (SR leukemia) greater than 100 µM and a TGI (SW-620 colon) greater than 100 µM. The TGI (T-47D breast) was greater than 100 µM, the TGI (TK-10 renal) was greater than 100 µM and the TGI (U251 CNS) was greater than 100 µM. It also gave a TGI (UACC-257 melanoma) greater than 100 µM, a TGI (UACC-62 melanoma) greater than 100 µM and a TGI (UO-31 renal) greater than 100 µM.
